In patent US7763752B2, “Amino alcohol derivatives, salts thereof and immunosuppresive agents” (Kyorin Pharmaceutical Co., Ltd., priority 2002, dated 2010):
Where a name gives a salt, the structure may show the parent alone.

Experiments:
[1] = system: Host vs Graft Reaction in Mice; test: Inhibitory effects of test compounds on host vs graft reaction in mice (popliteal lymph node weight); assay type: in vivo, C3H/HeN mice
Procedure: Inhibitory Effects of Test Compounds on Host vs Graft Reaction in Mice
This experiment was performed according to the method described in Transplantation 55(3) (1993): 578-591. Spleens were collected from 7 to 12 week old male BALB/c mice (available from CLEA JAPAN Inc., CHARLES RIVER JAPAN Inc., or JAPAN SLC Inc.). The spleens were placed in an RPMI-1640 medium (SIGMA, GIBCO […] Inc., or IWAKI GLASS Co., Ltd.) and were gently pressed between two slide glasses and then passed through a cell strainer (70 μm, Falcon) to form a cell suspension. The suspension was then centrifuged and the supernatant was discarded. An ammonium chloride-Tris isotonic buffer was added to the suspension to lyse erythrocytes. The cells were then centrifuged three times in RPMI-1640 medium for washing and were resuspended in an RPMI-1640 medium. To this suspension, mitomycin C (KYOWA HAKKO KOGYO Co., Ltd.) was added to a final concentration of 25 μg/mL and the suspension was incubated for 30 minutes at 37° C. in a 5% CO2 atmosphere. The cells were centrifuged three times in RPMI-1640 medium for washing and were resuspended in an RPMI-1640 medium so that the medium would contain 2.5×10^8 cells/mL. This suspension served as a “stimulation cell suspension.” Using a 27 G needle, along with a microsyringe (Hamilton), 20 μL (5×10^6 cells/mouse) of the stimulation cell suspension was subcutaneously injected into the right hind footpad of 6 to 12 week old male C3H/HeN mice (CLEA JAPAN Inc., CHARLES RIVER JAPAN Inc., or JAPAN SLC Inc.). As a normal control group, a group of mice were injected with RPMI-1640 medium alone. 4 days after the injection, right popliteal lymph nodes were collected and were weighed on a Mettler AT201 electronic scale (METTLER TOLEDO Co., Ltd.). Each animal was intraperitoneally administered a test compound once a day for four consecutive days starting on the day of the injection of the stimulation cells (i.e., total of 4 times). As a control group, a group of the animals were administered the same solvent as that used in the preparation of each test compound.

[2] = Mus musculus, ip, dose 0.03 mg/kg
[3] = Mus musculus, ip, dose 0.1 mg/kg

CC(=O)NC(CO)CCc1ccc(Sc2cccc(OCc3ccccc3)c2)cc1Cl (stereo not shown) [Example 201, 2-acetylamino-4-[4-(3-benzyloxyphenylthio)-2-chlorophenyl]butane-1-ol]
melting point: 78 to 81 °C

CCC(N)(CO)CCCc1ccc(Sc2cccc(OCc3ccccc3)c2)cc1Cl (single isomer, unassigned; (+)) [Example 189, (+)-2-amino-5-[4-(3-benzyloxyphenylthio)-2-chlorophenyl]-2-ethylpentane-1-ol]
inhibition in vivo at 0.03 mg/kg [1, 2]: 71%

CC(C)CC(N)(CO)CCCc1ccc(Sc2cccc(OCc3ccccc3)c2)cc1Cl (stereo not shown) [Example 223, 2-amino-5-[4-(3-benzyloxyphenylthio)-2-chlorophenyl]-2-isobutylpentane-1-ol hydrochloride]
inhibition in vivo at 0.3 mg/kg ([1]; Mus musculus, ip): 70%

CCC(N)=C(CO)CCCc1ccc(Sc2cccc(OCc3ccccc3)c2)cc1Cl [Example 227, 3-amino-7-[4-(3-benzyloxyphenylthio)-2-chlorophenyl]-4-hydroxymethyl-3-heptene hydrochloride]
inhibition in vivo at 0.3 mg/kg ([1]; Mus musculus, ip): 58%

CC(N)(CO)CCCc1ccc(Sc2cccc(OCc3ccccc3)c2)cc1Cl (single isomer, unassigned; (+)) [Example 185, (+)-2-amino-5-[4-(3-benzyloxyphenylthio)-2-chlorophenyl]-2-methylpentane-1-ol]
Inhibition (%) ([1]; dose 0.1 mg/kg): 88%

CCC(N)(CO)CCc1ccc(Sc2cccc(OCc3ccccc3)c2)cc1Cl (racemic) [Example 194, (±)-2-amino-4-[4-(3-benzyloxyphenylthio)-2-chlorophenyl]-2-ethylbutane-1-ol]
inhibition in vivo at 0.1 mg/kg [1, 3]: 70%

CC(O)C(CCCc1ccc(Oc2cccc(OCc3ccccc3)c2)cc1Cl)NC(=O)OC(C)(C)C (stereo not shown) [Example 131, 6-[4-(3-benzyloxyphenoxy)-2-chlorophenyl]-3-t-butoxycarbonylaminohexane-2-ol]
inhibition in vivo at 0.3 mg/kg ([1]; Mus musculus, ip): 57%

CC(N)(CO)CCCc1ccc(Sc2cccc(OCc3ccccc3)c2)cc1Cl (single isomer, unassigned; (+)) [Example 184, (+)-2-amino-5-[4-(3-benzyloxyphenylthio)-2-chlorophenyl]-2-methylpentane-1-ol]
Inhibition (%) ([1]; dose 0.1 mg/kg): 45%

Cl.NC(CO)CCCc1ccc(Sc2cccc(C(F)(F)F)c2)cc1Cl (stereo not shown)
melting point: 166 to 168 °C

CCCC(N)(CO)CCCc1ccc(Sc2cccc(OCc3ccccc3)c2)cc1Cl.Cl (single isomer, unassigned; (+)) [Example 209, (+)-2-amino-5-[4-(3-benzyloxyphenylthio)-2-chlorophenyl]-2-propylpentane-1-ol]
melting point: 55 to 57 °C | Inhibition (%) ([1]; dose 0.03 mg/kg): 71%

NC(CO)(CCCO)CCCc1ccc(Sc2cccc(OCc3ccccc3)c2)cc1Cl (stereo not shown) [Example 151, 4-amino-7-[4-(3-benzyloxyphenylthio)-2-chlorophenyl]-4-hydroxymethylheptanol hydrochloride]
inhibition in vivo at 0.03 mg/kg [1, 2]: 65%

CCC(N)(CO)CCCc1ccc(Sc2cccc(OCc3ccccc3)c2)cc1Cl (racemic) [Example 188, (±)-2-amino-5-[4-(3-benzyloxyphenylthio)-2-chlorophenyl]-2-ethylpentane-1-ol hydrochloride]
inhibition in vivo at 0.1 mg/kg [1, 3]: 78%

OCC(CCCc1ccc(Oc2cccc(C(F)(F)F)c2)cc1)Nc1ccccc1 (stereo not shown) [Example 127, 2-phenylamino-5-[4-(3-trifluoromethylphenoxy)phenyl]pentane-1-ol]
inhibition in vivo at 10 mg/kg ([1]; Mus musculus, ip, dose 10 mg/kg): 57%

CCC(N)(CO)CCc1ccc(Sc2cccc(OCc3ccccc3)c2)cc1Cl (single isomer, unassigned; (-)) [Example 196, (−)-2-amino-4-[4-(3-benzyloxyphenylthio)-2-chlorophenyl]-2-ethylbutane-1-ol]
inhibition in vivo at 0.03 mg/kg [1, 2]: 63%

Cl.NC(CO)CCCc1ccc(S(=O)(=O)c2cccc(OCc3ccccc3)c2)cc1Cl (stereo not shown)
melting point: 154 to 156 °C

CC(O)C(N)CCCc1ccc(Sc2cccc(OCc3ccccc3)c2)cc1Cl (stereo not shown) [Example 135, 3-amino-6-[4-(3-benzyloxyphenylthio)-2-chlorophenyl]hexane-2-ol hydrochloride]
inhibition in vivo at 1 mg/kg ([1]; Mus musculus, ip, dose 1 mg/kg): 69%

C#CCC(N)(CO)CCCc1ccc(Sc2cccc(OCc3ccccc3)c2)cc1Cl (stereo not shown) [Example 222, 2-amino-5-[4-(3-benzyloxyphenylthio)-2-chlorophenyl]-2-propargylpentane-1-ol hydrochloride]
inhibition in vivo at 0.3 mg/kg ([1]; Mus musculus, ip): 57%

CCCC(N)(CO)CCCc1ccc(Sc2cccc(OCc3ccccc3)c2)cc1Cl (stereo not shown) [Example 197]
inhibition in vivo at 0.03 mg/kg [1, 2]: 54%

NC(CO)(CCO)CCCc1ccc(Sc2cccc(OCc3ccccc3)c2)cc1Cl (stereo not shown) [Example 148, 3-amino-6-[4-(3-benzyloxyphenylthio)-2-chlorophenyl]-3-hydroxymethylhexanol hydrochloride]
inhibition in vivo at 0.3 mg/kg ([1]; Mus musculus, ip): 71%

CC(N)(CO)CCc1ccc(Sc2cccc(OCc3ccccc3)c2)cc1Cl.Cl (single isomer, unassigned; (+)) [Example 192, (+)-2-amino-4-[4-(3-benzyloxyphenylthio)-2-chlorophenyl]-2-methylbutane-1-ol hydrochloride]
Inhibition (%) ([1]; dose 0.1 mg/kg, hydrochloride): 86%

CC(N)(CO)CCc1ccc(Sc2cccc(OCc3ccccc3)c2)cc1Cl.Cl (single isomer, unassigned; (+)) [Example 191, (+)-2-amino-4-[4-(3-benzyloxyphenylthio)-2-chlorophenyl]-2-methylbutane-1-ol hydrochloride]
Inhibition (%) ([1]; dose 0.1 mg/kg, hydrochloride): 41%
